The assay has as its system P388. The assay can be described thus: Cytotoxicity against mouse P388 cells. Format: functional.

In brackets after ≈: the same amount, converted by molar mass.

With `Nc1ncnc2c1ccn2[C@@H]1O[C@H](CO)[C@@H](O)[C@H]1O`, the Activity entry was “Toxic”. With `NC1=Cc2nc3ccc(Br)cc3c3ccnc(c23)C1=O` [PANTHERININE], where the note is “read-out: ED50 (the source's name)”, the EC50 was found to be 4.5 µg/mL (≈ 13.8 µM).

Values taken from ChEMBL document CHEMBL1147386, “Pantherinine, a cytotoxic aromatic alkaloid, and 7-deazainosine from the ascidian Aplidium pantherinum” (1993).
